Source: patent EP0051773A1, “Penicillins, their salts, process for their preparation and pharmaceutical compositions containing them” (Dr. Karl Thomae GmbH, priority 1980, dated 1982)
In brackets after ≈: the same amount, converted by molar mass.

Assays:
[1] = test system: Enterobacter cloacae ATCC 13 047; test: serial dilution test in microtiter system (bacteriostasis, MIC); type: cell-based; details: ATCC13, liquid medium, 18 to 20 h at 37°C, read-out: MHK-Werte Eb. cloacae 13 047
Procedure: (§1) Für die Untersuchungen wurde die Methode des Reihenverdünnungstestes im Mikrotitersystem angewandt. Die Prüfung der Substanzen auf Bakteriostase erfolgte in flüssigem Medium. Es wurde die Bakteriostasewirkung bei folgenden Konzentrationen untersucht.
(§2) Es wurde ein Nährboden folgender Zusammensetzung benutzt: 10 g Pepton, 8 g Fleischextrakt-Oxoid, 3 g Natriumschlorid, 2 g sek. Natriumphosphat werden mit dest. Wasser auf 1000 ml aufgefüllt (pH 7,2-7,4). Lediglich bei der Testung gegen Streptokokken wurde 1% Glucose hinzugefügt. Das Alter der Primärkulturen betrug etwa 20 Stunden. Die Einstellung der Keimsuspension erfolgte am Photometer (nach "Eppendorf") (Reagenzglas-Durchmesser 14 mm, Filter 546 nm) anhand der Trübung einer Bariumsulfat-Vergleichssuspension, die durch eine Bariumsulfat-Aufschwemmung erzeugt wurde, welche durch die Zugabe von 3,0 ml 1%ige Bariumchloridlösung in 97 ml 1%ige Schwefelsäure entstand. Nach der Einstellung wurden Streptococcus Aronson im Verhältnis 1:15 und die übrigen Testkeime im Verhältnis 1:1500 mit einer Kochsalzlösung weiter verdünnt.
(§3) 16 mg der jeweiligen Substanz wurden in 10 ml-Meßkolben eingewogen und mit dem Lösungsmittel bis zur Marke aufgefüllt. Die weitere Verdünnungsreihe wurde mit destilliertem Wasser oder dem jeweiligen Lösungsmittel hergestellt.
(§4) Die Vertiefungen der Mikrotiterplatten wurden mit 0,2 ml Nährmedium, 0,01 ml der entsprechenden Substanzverdünnung und mit einem Tropfen Keimsuspension (0,01 ml) beschickt und 18 bis 20 Stunden bei 37°C bebrütet. Eine Lösungsmittelkontrolle wurde stets mitgeführt.
(§5) Die Ablesung wurde makroskopisch vorgenommen, wobei die jeweilige Grenkonzentration (= niedrigste noch bakteriostatisch wirksame Konzentration) ermittelt wurde.
(§6) Als Testorganismen wurden benützt: - Staphylococcus aureus SG 511, Escherichia coli ATCC 11 775, Pseudomonas aeruginosa Hamburgensis und Walter, Serratia marcescens ATCC 13 880, Klebsiella pneumoniae ATCC 10 031 und BC 6, Proteus mirabilis Hamburgensis, Proteus rettgeri BC 7 und Enterobacter cloacae ATCC 13 047.
(§7) In der folgenden Tabelle 2 sind die ermittelten minimalen Hemmkonzentrationen (MIC) für typische Vertreter der erfindungsgemäßen Verbindungen aufgeführt, wobei sich die Ziffern auf die Penicilline der Tabelle 1 Seite 18 beziehen.

[2] = test system: Escherichia coli ATCC 11 775; test: as above; type: cell-based; details: ATCC11, liquid medium, 18 to 20 h at 37°C, read-out: MHK-Werte E.coli ATCC 11 755
Procedure: as §1, §2, §3, §4, §5, §6, §7

[3] = test system: Klebsiella pneumoniae ATCC 10 031; test: as above; type: cell-based; details: ATCC10, liquid medium, 18 to 20 h at 37°C, read-out: MHK-Werte Kl. pneum. ATCC 10 031
Procedure: as §1, §2, §3, §4, §5, §6, §7

[4] = test system: Klebsiella pneumoniae BC 6; test: as above; type: cell-based; details: BC6, liquid medium, 18 to 20 h at 37°C, read-out: MHK-Werte Kl. pneum. BC 6
Procedure: as §1, §2, §3, §4, §5, §6, §7

[5] = test system: Proteus mirabilis Hamburgensis; test: as above; type: cell-based; details: liquid medium, 18 to 20 h at 37°C, read-out: MHK-Werte Prot. mir. Hbg.
Procedure: as §1, §2, §3, §4, §5, §6, §7

Proteus rettgeri BC 7 = test: as above; type: cell-based; details: Providencia rettgeri, BC7; liquid medium, 18 to 20 h at 37°C; read-out: MHK-Werte Prot. rettg. BC 7
Procedure: as §1, §2, §3, §4, §5, §6, §7

[6] = test system: Pseudomonas aeruginosa Hamburgensis; test: as above; type: cell-based; details: liquid medium, 18 to 20 h at 37°C, read-out: MHK-Werte Pseud. aerug. Hbg.
Procedure: as §1, §2, §3, §4, §5, §6, §7

[7] = test system: Pseudomonas aeruginosa Walter; test: as above; type: cell-based; details: liquid medium, 18 to 20 h at 37°C, read-out: MHK-Werte Pseud. aerug. Walter
Procedure: as §1, §2, §3, §4, §5, §6, §7

[8] = test system: Serratia marcescens ATCC 13 880; test: as above; type: cell-based; details: ATCC13, liquid medium, 18 to 20 h at 37°C, read-out: MHK-Werte Serr. marcesc. ATCC 13 880
Procedure: as §1, §2, §3, §4, §5, §6, §7

[9] = test system: Staphylococcus aureus SG 511; test: as above; type: cell-based; details: SG511, liquid medium, 18 to 20 h at 37°C, read-out: MHK-Werte Staph. aureus SG 511
Procedure: as §1, §2, §3, §4, §5, §6, §7

E.coli ATCC 11 775 = test: experimental intraperitoneal infection in mice, ED50 (survival); type: in vivo, Mäuse; details: Escherichia coli, ATCC 11 / ATCC 1175, sc, 168 h; female NMRI mice, i.p. infection, s.c. application, treated once, 7 days observation
Procedure: (§8) Eine Reihe der erfindungsgemäßen Verbindungen wurde in vivo bei experimentellen Infektionen an Mäusen untersucht. Man verwendete als pathogene Bakterien E.coli ATCC 11 775 und Pseudomonas aeruginosa Walter. Es wurde eine intraperitoneale Infektion mit 0,2 ml einer 5%igen Mucinsuspension der Bakterien gesetzt. Dies entspricht etwa 2x10^6 Keime E.coli bzw. 8x10^5 Keime Pseudomonas/Maus. Weibliche Mäuse vom Stamm NMRI wurden in Gruppen von jeweils 10 Tieren aufgeteilt, zwei Gruppen blieben unbehandelt, die restlichen Gruppen wurden mit verschiedenen Dosen der jeweiligen erfindungsgemäßen Penicilline zur Bestimmung der ED50 (Dosis, bei der 50 % der Tiere überleben) behandelt. Bei der E.coli-Infektion wurde einmal therapiert. Bei der Pseudomonas-Infektion wurde dreimal behandelt.
(§9) Der Beobachtungszeitraum betrug in beiden Fällen 7 Tage. Die Ergebnisse dieser Teste mit repräsentativen Vertretern der erfindungsgemäßen Penicilline sind in der Tabelle 3 dargestellt.

[10] = test system: Pseudomonas aeruginosa Walter; test: as above; type: in vivo, Mäuse; details: sc, 168 h, female NMRI mice, i.p. infection, s.c. application, treated three times, 7 days observation, read-out: ED50 Pseud. aerug. Walter
Procedure: as §8, §9

SMILES | MIC [1] [µg/mL] | MIC [2] [µg/mL] | MIC [3] [µg/mL] | MIC [4] [µg/mL] | MIC [5] [µg/mL] | MIC (Proteus rettgeri BC 7) [µg/mL] | MIC [6] [µg/mL] | MIC [7] [µg/mL] | MIC [8] [µg/mL] | MIC [9] [µg/mL] | ED50 (E.coli ATCC 11 775) [mg/kg] | ED50 [10] [mg/kg]
CCN1CCN(C(=O)N[C@@H](C(=O)N[C@@H]2C(=O)N3[C@@H]2SC(C)(C)[C@@H]3C(=O)O)c2ccccc2)C(=O)C1=O [D, Piperacillin, reference compound] | 4 (≈ 7.73 µM) | 2 (≈ 3.86 µM) | 4 (≈ 7.73 µM) | 8 (≈ 15.5 µM) | 0.25 (≈ 0.483 µM) | 0.5 (≈ 0.966 µM) | 4 (≈ 7.73 µM) | 8 (≈ 15.5 µM) | 0.5 (≈ 0.966 µM) | 0.25 (≈ 0.483 µM) | 89 | 186
CC1(C)S[C@@H]2[C@H](NC(=O)[C@H](NC(=O)Nc3cnc(Nc4ccc(S(N)(=O)=O)cc4)nc3O)c3ccccc3)C(=O)N2[C@H]1C(=O)O [Verbindung 1, D-α-[3-(2-p-Aminosulfonylanilino-4-hydroxy-5-pyrimidinyl)-ureido]-benzylpenicillin-Natrium] | 0.5 (≈ 0.761 µM) | 0.12 (≈ 0.183 µM) | 0.5 (≈ 0.761 µM) | 0.5 (≈ 0.761 µM) | < 0.03 | 0.25 (≈ 0.381 µM) | 1 (≈ 1.52 µM) | 1 (≈ 1.52 µM) | 0.12 (≈ 0.183 µM) | 0.12 (≈ 0.183 µM) | 3.9 | 8.2
CC1(C)S[C@@H]2[C@H](NC(=O)[C@H](NC(=O)Nc3cnc(Nc4ccc(S(N)(=O)=O)cc4)nc3O)c3ccc(O)c(O)c3)C(=O)N2[C@H]1C(=O)O [Verbindung 3] | 4 (≈ 5.81 µM) | 1 (≈ 1.45 µM) | 8 (≈ 11.6 µM) | 8 (≈ 11.6 µM) | 0.5 (≈ 0.726 µM) | 1 (≈ 1.45 µM) | 4 (≈ 5.81 µM) | 4 (≈ 5.81 µM) | 4 (≈ 5.81 µM) | 0.5 (≈ 0.726 µM) | 3.7 | 10.4
CNS(=O)(=O)c1ccc(Nc2ncc(NC(=O)N[C@@H](C(=O)N[C@@H]3C(=O)N4[C@@H]3SC(C)(C)[C@@H]4C(=O)O)c3ccc(O)cc3)c(O)n2)cc1 [Verbindung 7, D-α-[3-(4-Hydroxy-2-p-methylaminosulfonylanilino-5-pyrimidinyl)-ureido]-p-hydroxy-benzylpenicillin-Natrium] | 0.5 (≈ 0.728 µM) | 0.12 (≈ 0.175 µM) | 1 (≈ 1.46 µM) | 1 (≈ 1.46 µM) | 0.06 (≈ 0.0874 µM) | 0.5 (≈ 0.728 µM) | 1 (≈ 1.46 µM) | 1 (≈ 1.46 µM) | 0.12 (≈ 0.175 µM) | 0.25 (≈ 0.364 µM) | 3.4 | 6.6
C[S+]([O-])c1ccc(Nc2ncc(NC(=O)NC(C(=O)NC3C(=O)N4C3SC(C)(C)C4C(=O)O)c3ccccc3)c(O)n2)cc1 (stereo not drawn) [Verbindung 21] | 2 (≈ 3.13 µM) | 0.25 (≈ 0.391 µM) | 2 (≈ 3.13 µM) | 1 (≈ 1.56 µM) | 0.12 (≈ 0.188 µM) | 0.5 (≈ 0.782 µM) | 2 (≈ 3.13 µM) | 2 (≈ 3.13 µM) | 0.25 (≈ 0.391 µM) | 0.25 (≈ 0.391 µM) | 3 | 6.6
CC1(C)SC2C(NC(=O)C(NC(=O)Nc3cnc(Nc4ccc(S(C)(=O)=O)cc4)nc3O)c3ccccc3)C(=O)N2C1C(=O)O (stereo not drawn) [Verbindung 24] | 2 (≈ 3.05 µM) | 0.12 (≈ 0.183 µM) | 0.5 (≈ 0.763 µM) | 0.5 (≈ 0.763 µM) | 0.06 (≈ 0.0915 µM) | 0.12 (≈ 0.183 µM) | 1 (≈ 1.53 µM) | 2 (≈ 3.05 µM) | 0.12 (≈ 0.183 µM) | 0.25 (≈ 0.381 µM) | 4.7 | 7.5
CNC(=O)c1ccc(Nc2ncc(NC(=O)NC(C(=O)NC3C(=O)N4C3SC(C)(C)C4C(=O)O)c3ccc(O)cc3)c(O)n2)cc1 (stereo not drawn) [Verbindung 37] | 1 (≈ 1.54 µM) | 0.25 (≈ 0.384 µM) | 2 (≈ 3.07 µM) | 2 (≈ 3.07 µM) | 0.06 (≈ 0.0922 µM) | 0.5 (≈ 0.768 µM) | 1 (≈ 1.54 µM) | 1 (≈ 1.54 µM) | 0.25 (≈ 0.384 µM) | 0.5 (≈ 0.768 µM) | 2.8 | 8
CC1(C)SC2C(NC(=O)C(NC(=O)Nc3cnc(Nc4ccc(S(N)(=O)=O)c(O)c4)nc3O)c3ccc(O)cc3)C(=O)N2C1C(=O)O (stereo not drawn) [Verbindung 44] | 0.5 (≈ 0.726 µM) | 0.12 (≈ 0.174 µM) | 1 (≈ 1.45 µM) | 1 (≈ 1.45 µM) | 0.03 (≈ 0.0436 µM) | 0.25 (≈ 0.363 µM) | 0.5 (≈ 0.726 µM) | 0.5 (≈ 0.726 µM) | 0.12 (≈ 0.174 µM) | 0.25 (≈ 0.363 µM) | 2.1 | 3.6
CC1(C)SC2C(NC(=O)C(NC(=O)Nc3cnc(Nc4ccc(S(N)(=O)=O)c(O)c4)nc3O)c3ccccc3)C(=O)N2C1C(=O)O (stereo not drawn) [Verbindung 45] | 1 (≈ 1.49 µM) | 0.12 (≈ 0.178 µM) | 0.5 (≈ 0.743 µM) | 1 (≈ 1.49 µM) | 0.06 (≈ 0.0892 µM) | 0.25 (≈ 0.372 µM) | 1 (≈ 1.49 µM) | 0.5 (≈ 0.743 µM) | 0.12 (≈ 0.178 µM) | 0.12 (≈ 0.178 µM) | 3.2 | 5.2
C[S+]([O-])c1ccc(CNc2ncc(NC(=O)NC(C(=O)N[C@@H]3C(=O)N4[C@@H]3SC(C)(C)[C@@H]4C(=O)O)c3ccc(O)cc3)c(O)n2)cc1 (stereo partly drawn) [Verbindung 62] | 4 (≈ 5.97 µM) | 0.5 (≈ 0.747 µM) | 4 (≈ 5.97 µM) | 8 (≈ 11.9 µM) | 0.12 (≈ 0.179 µM) | 1 (≈ 1.49 µM) | 2 (≈ 2.99 µM) | 2 (≈ 2.99 µM) | 1 (≈ 1.49 µM) | 0.5 (≈ 0.747 µM) | 5.9 | 18.3
